From ChEMBL document CHEMBL4765255, “Design and synthesis of Imidazo[1,2-b]pyridazine IRAK4 inhibitors for the treatment of mutant MYD88 L265P diffuse large B-cell lymphoma” (Eur J Med Chem, 2020)

What follows are compounds tested on OCI-Ly10 (assay: Cytotoxicity against human OCILY10 cells harboring MYD88 L265P mutant assessed as reduction in cell viability incubated for 72 hrs by CCK-8 assay). Conditions: OCI-Ly10, 72 h.
Format: functional, cell-based

| Structure (SMILES) | IC50 [µM] |
| --- | --- |
| Cn1cc(NC(=O)c2cnc3ccc(N4CCC[C@@H](N)C4)nn23)c(C(F)F)n1 | 10.7 |

Each compound was assayed on TMD8 (assay: Cytotoxicity against human TMD8 cells harboring MYD88 L265P mutant assessed as reduction in cell viability incubated for 72 hrs by CCK-8 assay). Conditions: TMD8, 72 h.
Format: functional, cell-based

| Structure (SMILES) | IC50 [µM] |
| --- | --- |
| Cn1cc(NC(=O)c2cnc3ccc(N4CCC[C@@H](N)C4)nn23)c(C(F)F)n1 | 17.8 |

What follows are compounds tested against T1, Interleukin-1 receptor-associated kinase 4 (Homo sapiens, UniProt Q9NWZ3) (assay: Inhibition of recombinant human His-tagged full length IRAK4 expressed in baculovirus expression system using Ser/Thr07 peptide as substrate incubated for 1 hr by Z'lyte assay). Conditions: not given.
T1 sequence (Q9NWZ3 whole entry): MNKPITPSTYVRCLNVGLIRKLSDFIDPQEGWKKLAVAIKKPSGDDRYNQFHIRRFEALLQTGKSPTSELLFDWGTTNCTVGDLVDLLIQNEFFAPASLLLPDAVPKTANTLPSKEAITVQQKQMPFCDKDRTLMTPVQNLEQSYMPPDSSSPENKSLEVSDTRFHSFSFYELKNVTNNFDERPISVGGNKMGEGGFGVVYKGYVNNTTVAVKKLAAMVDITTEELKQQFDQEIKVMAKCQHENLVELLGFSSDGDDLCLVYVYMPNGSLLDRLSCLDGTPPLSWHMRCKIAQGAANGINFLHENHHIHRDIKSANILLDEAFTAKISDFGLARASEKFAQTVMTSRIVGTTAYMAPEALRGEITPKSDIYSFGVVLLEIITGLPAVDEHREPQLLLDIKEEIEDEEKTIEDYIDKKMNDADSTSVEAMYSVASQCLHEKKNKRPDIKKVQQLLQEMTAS

| Structure (SMILES) | IC50 [µM] |
| --- | --- |
| O=C(Nc1cn(C2CCNCC2)nc1C(F)(F)F)c1cnc2ccc(N[C@@H]3CCCNC3)nn12 | 0.0522 |
| Cc1nn(C)cc1NC(=O)c1cnc2ccc(N[C@@H]3CCCNC3)nn12 | > 1 |
| Cn1cc(NC(=O)c2cnc3ccc(N4CCC(N)CC4)nn23)c(C(F)F)n1 | 0.0803 |
| Cc1nc2ccc(N[C@@H]3CCCNC3)nn2c1C(=O)Nc1cn(C)nc1C(F)F | > 1 |
| Cn1cc(NC(=O)c2cnc3ccc(N4CC[C@@H](N)C4)nn23)c(C(F)F)n1 | > 1 |
| Cn1cc(NC(=O)c2cnc3ccc(N4CCNCC4)nn23)c(C(F)F)n1 | 0.0655 |
| Cn1cc(NC(=O)c2cnc3ccc(N[C@@H]4CCCNC4)nn23)c(C(N)=O)n1 | 0.0125 |
| CN(c1ccc2ncc(C(=O)Nc3cn(C)nc3C(F)F)n2n1)[C@@H]1CCCNC1 | > 1 |
| Cc1nn2ccc(N[C@@H]3CCCNC3)nc2c1C(=O)Nc1cn(C)nc1C(F)F | > 1 |
| CC(C)n1cc(NC(=O)c2cnc3ccc(N[C@@H]4CCCNC4)nn23)c(C(F)(F)F)n1 | 0.077 |
| Cn1cc(NC(=O)c2cnc3ccc(N4CCC[C@@H](N)C4)nn23)c(C(F)F)n1 | 0.0087 |

These compounds were tested on Ramos (assay: Cytotoxicity against human Ramos cells harboring MYD88 assessed as reduction in cell viability incubated for 72 hrs by CCK-8 assay). Conditions: not given.
Format: functional, cell-based

| Structure (SMILES) | IC50 [µM] |
| --- | --- |
| Cn1cc(NC(=O)c2cnc3ccc(N4CCC[C@@H](N)C4)nn23)c(C(F)F)n1 | 44.3 |

What follows are compounds tested on HT (assay: Cytotoxicity against human HT cells harboring MYD88 assessed as reduction in cell viability incubated for 72 hrs by CCK-8 assay). Conditions: not given.
Format: functional, cell-based

| Structure (SMILES) | IC50 [µM] |
| --- | --- |
| Cn1cc(NC(=O)c2cnc3ccc(N4CCC[C@@H](N)C4)nn23)c(C(F)F)n1 | 41.7 |
